Assay results from ChEMBL document CHEMBL1201862, “PubChem BioAssay data set” (2004).
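Compound exposure: 48 hours, 5 concentrations, 96-well plates. Abbreviation: GI50, concentration required for 50% inhibition of growth.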 Activity calls are given as the source filed them. Rule as the data show it: active = GI50 up to about 1.1 µM and inactive = higher.

Columns and labels:
Assay in all cases: DTP human tumour cell line panel, 48 h
[1] = system: ACHN
[2] = system: DU-145
[3] = system: HCC 2998
[4] = system: HOP-92
[5] = system: Hs-578T
[6] = system: IGROV-1
[7] = system: KM12
[8] = system: MDA-MB-435
[9] = system: NCI-H23
[10] = system: OVCAR-3
[11] = system: OVCAR-8
[12] = system: RXF 393
[13] = system: SF-268
[14] = system: SK-MEL-5
[15] = system: SK-OV-3
[16] = system: T47D
[17] = system: U-251
[18] = system: UACC-257
[19] = system: MDA-MB-231
[20] = system: MOLT-4

Compound | GI50 [1] | GI50 [2] | GI50 [3] | GI50 [4] | GI50 [5] | GI50 [6] | GI50 [7] | GI50 [8] | GI50 [9] | GI50 [10] | GI50 [11] | GI50 [12] | GI50 [13] | GI50 [14] | GI50 [15] | GI50 [16] | GI50 [17] | GI50 [18] | GI50 [19] | GI50 [20]
N#CCCC1(CCC#N)CCCCCCCCC(CCC#N)(CCC#N)C(O)C1O (configuration not stated) | > 100 µM (inactive) | > 100 µM (inactive) | > 100 µM (inactive) | > 100 µM (inactive) | 52 µM (inactive) | > 100 µM (inactive) | > 100 µM (inactive) | > 100 µM (inactive) | > 100 µM (inactive) | > 100 µM (inactive) | > 100 µM (inactive) | 31.9 µM (inactive) | 37.8 µM (inactive) | > 100 µM (inactive) | > 100 µM (inactive) | > 100 µM (inactive) | 46.7 µM (inactive) | > 100 µM (inactive) | – | –
CCCCCCCCCc1nn2c(Cc3ccccc3)nnc2s1 | 20 µM (inactive) | 22.4 µM (inactive) | – | – | 20.8 µM (inactive) | – | 25 µM (inactive) | 26.3 µM (inactive) | 19.2 µM (inactive) | 17.2 µM (inactive) | 15.3 µM (inactive) | 18.5 µM (inactive) | 16.7 µM (inactive) | 15.9 µM (inactive) | 25.5 µM (inactive) | 24.7 µM (inactive) | 18.7 µM (inactive) | 23.5 µM (inactive) | 24.5 µM (inactive) | 17.3 µM (inactive)
O=c1[nH]c2cc([N+](=O)[O-])c(N/N=C/c3ccc(Cl)cc3Cl)c([N+](=O)[O-])c2[nH]1 | 39.8 µM (inactive) | 51.9 µM (inactive) | – | 32.9 µM (inactive) | 90.2 µM (inactive) | 25.1 µM (inactive) | 5.85 µM (inactive) | 5.21 µM (inactive) | 71.3 µM (inactive) | 17.4 µM (inactive) | 20 µM (inactive) | 18.2 µM (inactive) | 75.3 µM (inactive) | > 100 µM (inactive) | 30.1 µM (inactive) | > 100 µM (inactive) | 34.4 µM (inactive) | > 100 µM (inactive) | 13.1 µM (inactive) | 32.9 µM (inactive)
COc1cc(S(=O)(=O)Nc2ccc(-c3csc(N4C(=O)C(Cl)C4c4cccc(Oc5ccccc5)c4)n3)cc2)ccc1Cl (configuration not stated) | 24 µM (inactive) | 21.7 µM (inactive) | > 100 µM (inactive) | 15.3 µM (inactive) | > 100 µM (inactive) | 2.71 µM (inactive) | 26.9 µM (inactive) | 20.3 µM (inactive) | 16 µM (inactive) | 58.5 µM (inactive) | 30.3 µM (inactive) | 3.13 µM (inactive) | 15 µM (inactive) | 29.1 µM (inactive) | > 100 µM (inactive) | 24.4 µM (inactive) | – | 39.6 µM (inactive) | – | 15.3 µM (inactive)
COC(=O)c1ccc(-c2nc(C#N)c(N)o2)cc1 | > 100 µM (inactive) | > 100 µM (inactive) | – | – | 32.2 µM (inactive) | 99.8 µM (inactive) | > 100 µM (inactive) | > 100 µM (inactive) | 35.8 µM (inactive) | > 100 µM (inactive) | 57.1 µM (inactive) | > 100 µM (inactive) | 37.7 µM (inactive) | > 100 µM (inactive) | > 100 µM (inactive) | > 100 µM (inactive) | 31.6 µM (inactive) | > 100 µM (inactive) | 27.1 µM (inactive) | > 100 µM (inactive)
Cc1cn(CC2=NCC(C)(C)CN2)c(=O)[nH]c1=O | > 100 µM (inactive) | > 100 µM (inactive) | > 100 µM (inactive) | > 100 µM (inactive) | > 100 µM (inactive) | > 100 µM (inactive) | – | – | > 100 µM (inactive) | – | > 100 µM (inactive) | > 100 µM (inactive) | > 100 µM (inactive) | > 100 µM (inactive) | > 100 µM (inactive) | > 100 µM (inactive) | > 100 µM (inactive) | > 100 µM (inactive) | > 100 µM (inactive) | –
COc1ccccc1[C@@H]1CCC2CC[C@@H](c3ccccc3OC)[N+]21Cc1ccccc1 (some centres not stated) | 3.3 µM (inactive) | 2.28 µM (inactive) | – | 0.968 µM (active) | 4.49 µM (inactive) | 1.34 µM (inactive) | 0.522 µM (active) | 0.585 µM (active) | 0.948 µM (active) | 0.887 µM (active) | 1.27 µM (inactive) | 2 µM (inactive) | 3.64 µM (inactive) | 0.36 µM (active) | 2.84 µM (inactive) | 0.349 µM (active) | 0.385 µM (active) | 0.521 µM (active) | 1.95 µM (inactive) | 1.83 µM (inactive)
COCc1cc2c(cc1/C(=C/[N+](=O)[O-])CS(=O)(=O)c1ccccc1)OCO2 | > 100 µM (inactive) | > 100 µM (inactive) | > 100 µM (inactive) | > 100 µM (inactive) | > 100 µM (inactive) | > 100 µM (inactive) | – | > 100 µM (inactive) | > 100 µM (inactive) | > 100 µM (inactive) | > 100 µM (inactive) | > 100 µM (inactive) | > 100 µM (inactive) | > 100 µM (inactive) | > 100 µM (inactive) | > 100 µM (inactive) | > 100 µM (inactive) | > 100 µM (inactive) | – | > 100 µM (inactive)
CCN(CC)CCCNc1nncc2cc3c([nH]c4ccccc43)c(C)c12 | 10.2 µM (inactive) | 12 µM (inactive) | 11 µM (inactive) | – | 14.1 µM (inactive) | 3.12 µM (inactive) | 5.18 µM (inactive) | 18.2 µM (inactive) | 14.1 µM (inactive) | 10.4 µM (inactive) | 7.29 µM (inactive) | – | 8.18 µM (inactive) | 19.3 µM (inactive) | 15.2 µM (inactive) | 13.3 µM (inactive) | 6.04 µM (inactive) | 15.6 µM (inactive) | 4.65 µM (inactive) | 1.49 µM (inactive)
O=C(O)C1C2C=CC(O2)C1C(=O)NCc1ccncc1 (configuration not stated) | > 100 µM (inactive) | > 100 µM (inactive) | – | > 100 µM (inactive) | > 100 µM (inactive) | > 100 µM (inactive) | > 100 µM (inactive) | > 100 µM (inactive) | – | 33.7 µM (inactive) | > 100 µM (inactive) | > 100 µM (inactive) | > 100 µM (inactive) | > 100 µM (inactive) | > 100 µM (inactive) | > 100 µM (inactive) | > 100 µM (inactive) | > 100 µM (inactive) | > 100 µM (inactive) | –
CC(C)C(C)/C=C\C(C)C1CCC2C3=CC=C4CC(O)CCC4(C)C3CCC21C (configuration not stated) | > 42 µM (inactive) | 51.6 µM (inactive) | – | 5.75 µM (inactive) | > 41.3 µM (inactive) | 31.4 µM (inactive) | > 54.8 µM (inactive) | 41.1 µM (inactive) | > 76.7 µM (inactive) | > 51.1 µM (inactive) | 29.2 µM (inactive) | > 42.5 µM (inactive) | > 42.7 µM (inactive) | 23.8 µM (inactive) | > 100 µM (inactive) | 81.5 µM (inactive) | > 31.8 µM (inactive) | > 76.9 µM (inactive) | > 40.6 µM (inactive) | 17.7 µM (inactive)
CC(=O)Oc1ccc(-c2cc3ccccc3oc2=O)cc1OC(C)=O | 16.8 µM (inactive) | 24.9 µM (inactive) | 18.7 µM (inactive) | – | 35.9 µM (inactive) | – | 11.8 µM (inactive) | 27.1 µM (inactive) | 53.2 µM (inactive) | – | 24.1 µM (inactive) | – | 27.9 µM (inactive) | – | – | 36.2 µM (inactive) | 32.7 µM (inactive) | 24.4 µM (inactive) | 28.6 µM (inactive) | 3.47 µM (inactive)
Cn1c(N/N=C/c2ccccc2)nc(-c2ccc([N+](=O)[O-])cc2)c(C#N)c1=O | > 100 µM (inactive) | 34.7 µM (inactive) | – | 16.5 µM (inactive) | 55.1 µM (inactive) | 49.3 µM (inactive) | 26.9 µM (inactive) | > 100 µM (inactive) | 44.3 µM (inactive) | 20.5 µM (inactive) | 34.3 µM (inactive) | 53.8 µM (inactive) | 39.7 µM (inactive) | 35.4 µM (inactive) | > 100 µM (inactive) | 97.9 µM (inactive) | 66.1 µM (inactive) | 50 µM (inactive) | 19.5 µM (inactive) | 10.4 µM (inactive)
c1ccc(CCc2cccnc2)nc1 | > 100 µM (inactive) | – | – | > 100 µM (inactive) | > 100 µM (inactive) | > 100 µM (inactive) | > 100 µM (inactive) | > 100 µM (inactive) | > 100 µM (inactive) | > 100 µM (inactive) | > 100 µM (inactive) | > 100 µM (inactive) | > 100 µM (inactive) | > 100 µM (inactive) | > 100 µM (inactive) | > 100 µM (inactive) | > 100 µM (inactive) | > 100 µM (inactive) | > 100 µM (inactive) | > 100 µM (inactive)
CC(=O)O[C@H]1C(=O)[C@@]2(C)[C@H]([C@H](OC(=O)c3ccc(F)cc3)[C@]3(O)C[C@H](OC(=O)[C@H](O)[C@@H](NC(=O)c4ccccc4)c4ccccc4)C(C)=C1C3(C)C)[C@]1(OC(C)=O)CO[C@@H]1C[C@@H]2O | 0.802 µM (active) | 0.0395 µM (active) | 0.0107 µM (active) | – | 0.00536 µM (active) | 0.0233 µM (active) | 0.0113 µM (active) | 0.0025 µM (active) | 0.124 µM (active) | 0.00557 µM (active) | 0.0181 µM (active) | 0.0813 µM (active) | 0.0929 µM (active) | 0.023 µM (active) | 0.0159 µM (active) | 0.00931 µM (active) | 0.00857 µM (active) | 0.0399 µM (active) | 0.219 µM (active) | 0.0146 µM (active)
